Assay [1] is described as follows: Inhibition of Phosphodiesterase 5.
A short description of assay [2]: Inhibition of Phosphodiesterase 5. This is another data set of the same source.

Turning to `COc1cc2c3c(n1)C(c1ccccc1)=N[C@@H](NC(=O)c1cccnc1)C(=O)N3CC2`, in assay [1], the IC50 is above 100 µM.
Turning to `COc1cc2c3c(n1)C(c1ccccc1)=NCC(=O)N3CC2` [4-Methoxy-6-phenyl-1,2-dihydro-8H-5,7,9a-triaza-benzo[cd]azulen-9-one], the IC50 in assay [1] came out at 91 µM.
For `COc1cc2c3c(n1)C(c1ccccc1)=NC(NC(=O)c1cccnc1)C(=O)N3CC2` (centres undefined) [N-(4-methoxy-9-oxo-6-phenyl-1,2,8,9-tetrahydro-5,7,9a-triazabenzo[cd]azulen-8-yl)nicotinamide], the values for the IC50 in assay [1] and in assay [2] were above 100 µM and 95 µM, respectively.

What is called IC50 is the concentration that gives 50% inhibition.

The values above are taken from BindingDB's records for doi:10.1016/j.bmcl.2004.03.067 (Pfizer, 2004).
